In PubChem BioAssay AID1963864 (Molecular Pharmacology Branch, DTP, NCI, 2024):

System: KRAS PDC multicell spheroid viability
Experiment: Anticancer human tumor 521955-158-R6-J3-PDC patient-derived pancreatic carcinoma cell line growth inhibition [KRAS2]
Settings: for IC50: curve of first compound; for viability, T/C: stronger effect = lower value; active means viability on the fitted dose curve at most 10% of control; inactive means the rest
In short: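 KRAS-mutant tumor cells were grown as spheroids with HUVEC endothelial cells and human MSCs as stroma. Targeted agents were tested alone and with KRAS pathway inhibitors. Doses started at or near clinical Cmax, or 10 microM, descending half-log.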

[1] = second compound 0.1 µM, first compound 0.0316 µM
[2] = second compound 0.1 µM, first compound 0.1 µM
[3] = second compound 0.316 µM, first compound 0.0316 µM
[4] = second compound 0.316 µM, first compound 0.1 µM
[5] = second compound 1 µM, first compound 0.0316 µM
[6] = second compound 1 µM, first compound 0.1 µM
[7] = second compound 3.16 µM, first compound 0.0316 µM
[8] = second compound 3.16 µM, first compound 0.1 µM
[9] = second compound 10 µM, first compound 0.0316 µM
[10] = second compound 10 µM, first compound 0.1 µM
[11] = second compound 0.1 µM, first compound 0.316 µM
[12] = second compound 0.1 µM, first compound 1 µM
[13] = second compound 0.1 µM, first compound 3.16 µM
[14] = second compound 0.1 µM, first compound 10 µM
[15] = second compound 0.316 µM, first compound 0.316 µM
[16] = second compound 0.316 µM, first compound 1 µM
[17] = second compound 0.316 µM, first compound 3.16 µM
[18] = second compound 0.316 µM, first compound 10 µM
[19] = second compound 1 µM, first compound 0.316 µM
[20] = second compound 1 µM, first compound 1 µM
[21] = second compound 1 µM, first compound 3.16 µM
[22] = second compound 1 µM, first compound 10 µM
[23] = second compound 3.16 µM, first compound 0.316 µM
[24] = second compound 3.16 µM, first compound 1 µM
[25] = second compound 3.16 µM, first compound 3.16 µM
[26] = second compound 3.16 µM, first compound 10 µM
[27] = second compound 10 µM, first compound 0.316 µM
[28] = second compound 10 µM, first compound 1 µM
[29] = second compound 10 µM, first compound 3.16 µM
[30] = second compound 10 µM, first compound 10 µM
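Further: drug exposure lasted seven days.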
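Wherever viability, T/C is given: 100% = DMSO vehicle wells and lower means fewer viable cells.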

CN(C)C/C=C/C(=O)Nc1cc2c(Nc3ccc(F)c(Cl)c3)ncnc2cc1O[C@H]1CCOC1 + COc1cc2nc(C)nc(NC(C)c3cc(N)cc(C(F)(F)F)c3)c2cc1OC1CCOC1
inactive: viability, T/C (second compound 0.1 µM, first compound 0.000316 µM) 89.3% | viability, T/C (second compound 0.1 µM, first compound 0.001 µM) 78.3% | viability, T/C (second compound 0.1 µM, first compound 0.00316 µM) 72.3% | viability, T/C (second compound 0.1 µM, first compound 0.01 µM) 61.2% | viability, T/C [1] 54% | viability, T/C [2] 55.5% | viability, T/C (second compound 0.316 µM, first compound 0.000316 µM) 93% | viability, T/C (second compound 0.316 µM, first compound 0.001 µM) 106% | viability, T/C (second compound 0.316 µM, first compound 0.00316 µM) 78.5% | viability, T/C (second compound 0.316 µM, first compound 0.01 µM) 65% | viability, T/C [3] 54.7% | viability, T/C [4] 53.2% | viability, T/C (second compound 1 µM, first compound 0.000316 µM) 105% | viability, T/C (second compound 1 µM, first compound 0.001 µM) 100% | viability, T/C (second compound 1 µM, first compound 0.00316 µM) 89.5% | viability, T/C (second compound 1 µM, first compound 0.01 µM) 61.8% | viability, T/C [5] 56.1% | viability, T/C [6] 48.6% | viability, T/C (second compound 3.16 µM, first compound 0.000316 µM) 84% | viability, T/C (second compound 3.16 µM, first compound 0.001 µM) 78.2% | viability, T/C (second compound 3.16 µM, first compound 0.00316 µM) 46.9% | viability, T/C (second compound 3.16 µM, first compound 0.01 µM) 51.1% | viability, T/C [7] 44.4% | viability, T/C [8] 45.5% | viability, T/C (second compound 10 µM, first compound 0.000316 µM) 59.8% | viability, T/C (second compound 10 µM, first compound 0.001 µM) 54.9% | viability, T/C (second compound 10 µM, first compound 0.00316 µM) 50.2% | viability, T/C (second compound 10 µM, first compound 0.01 µM) 26.2% | viability, T/C [9] 32.8% | viability, T/C [10] 25.4%
3.2 nM: IC50 (second compound 10 µM)
> 100 nM: IC50 (second compound 0.1 µM) | IC50 (second compound 0.316 µM) | IC50 (second compound 1 µM)
2.84 nM: IC50 (second compound 3.16 µM)

COC(=O)c1ccc2c(C(=Nc3ccc(N(C)C(=O)CN4CCN(C)CC4)cc3)c3ccccc3)c(O)[nH]c2c1 + COc1cc2nc(C)nc(NC(C)c3cc(N)cc(C(F)(F)F)c3)c2cc1OC1CCOC1
3010 nM: IC50 (second compound 0.1 µM)
1720 nM: IC50 (second compound 3.16 µM)
inactive: viability, T/C [1] 90% | viability, T/C [2] 95.7% | viability, T/C [11] 107% | viability, T/C [12] 115% | viability, T/C [13] 47.6% | viability, T/C [3] 93.9% | viability, T/C [4] 90.3% | viability, T/C [15] 91.4% | viability, T/C [16] 122% | viability, T/C [17] 55.2% | viability, T/C [5] 84% | viability, T/C [6] 94.4% | viability, T/C [19] 107% | viability, T/C [20] 115% | viability, T/C [21] 34.5% | viability, T/C [7] 75.8% | viability, T/C [8] 75.5% | viability, T/C [23] 108% | viability, T/C [24] 101% | viability, T/C [9] 42% | viability, T/C [10] 29.7%
< 31.6 nM: IC50 (second compound 10 µM)
3530 nM: IC50 (second compound 0.316 µM)
2410 nM: IC50 (second compound 1 µM)
active: viability, T/C [14] 0.24% | viability, T/C [18] 0.21% | viability, T/C [22] 1.78% | viability, T/C [25] 4.81% | viability, T/C [26] 0.15% | viability, T/C [27] 6.94% | viability, T/C [28] 2.96% | viability, T/C [29] 2.48% | viability, T/C [30] 0.99%

O=C(c1cc(Cc2n[nH]c(=O)c3ccccc23)ccc1F)N1CCN(C(=O)C2CC2)CC1 + COc1cc2nc(C)nc(NC(C)c3cc(N)cc(C(F)(F)F)c3)c2cc1OC1CCOC1
> 10000 nM: IC50 (second compound 0.1 µM) | IC50 (second compound 0.316 µM) | IC50 (second compound 1 µM) | IC50 (second compound 3.16 µM) | IC50 (second compound 10 µM)
inactive: viability, T/C [1] 82.4% | viability, T/C [2] 76.4% | viability, T/C [11] 86.1% | viability, T/C [12] 75.5% | viability, T/C [13] 69.2% | viability, T/C [14] 80.2% | viability, T/C [3] 88.9% | viability, T/C [4] 88.8% | viability, T/C [15] 80.5% | viability, T/C [16] 70.5% | viability, T/C [17] 67.1% | viability, T/C [18] 77.7% | viability, T/C [5] 90.9% | viability, T/C [6] 88.3% | viability, T/C [19] 97.1% | viability, T/C [20] 70.8% | viability, T/C [21] 70.3% | viability, T/C [22] 83.5% | viability, T/C [7] 70.1% | viability, T/C [8] 75.6% | viability, T/C [23] 67.2% | viability, T/C [24] 60.8% | viability, T/C [25] 63.6% | viability, T/C [26] 75.9% | viability, T/C [9] 55.4% | viability, T/C [10] 59.5% | viability, T/C [27] 55.9% | viability, T/C [28] 53.3% | viability, T/C [29] 65.3% | viability, T/C [30] 77.4%
